Assay results: PubChem BioAssay AID212 (DTP/NCI, 2004)
“And” between values parts separate entries of the source, which are not always exact repeats. Identical values can stand only once. Inconclusive results are not listed.

Tested on: BDF1 mice, colon carcinoma 38 sc, T/C %
Experiment: NCI In Vivo Anticancer Drug Screen. Data for tumor model Colon Carcinoma 38 (subcutaneous) in B6D2F1 (BDF1) mice
Outline: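 Ratio of survival or tumor size, compound-treated animals relative to vehicle controls, in tumor-bearing mice.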

[1] = endpoint: median tumor weight (est.), dose: 4.0 mg/kg/injection, schedule: Q07DX002 (ip), vehicle: saline, higher = larger tumour
[2] = endpoint: median tumor weight (est.), dose: 8.0 mg/kg/injection, schedule: Q07DX002 (ip), vehicle: Klucel (hydroxypropylcellulose) (HPC), higher = larger tumour
[3] = endpoint: median tumor weight (est.), dose: 8.0 mg/kg/injection, schedule: Q07DX002 (ip), vehicle: saline, higher = larger tumour
[4] = endpoint: median tumor weight (est.), dose: 16.0 mg/kg/injection, schedule: Q07DX002 (ip), vehicle: saline, higher = larger tumour
[5] = endpoint: median tumor weight (est.), dose: 32.0 mg/kg/injection, schedule: Q07DX002 (ip), vehicle: saline, higher = larger tumour
[6] = endpoint: median tumor weight (est.), dose: 6.25 mg/kg/injection, schedule: Q07DX002 (ip), vehicle: saline with Tween-80, higher = larger tumour
[7] = endpoint: median tumor weight (est.), dose: 12.5 mg/kg/injection, schedule: Q07DX002 (ip), vehicle: saline with Tween-80, higher = larger tumour
[8] = endpoint: median tumor weight (est.), dose: 25.0 mg/kg/injection, schedule: Q07DX002 (ip), vehicle: saline with Tween-80, higher = larger tumour
[9] = endpoint: median tumor weight (est.), dose: 25.0 mg/kg/injection, schedule: Q07DX002 (ip), vehicle: Klucel (hydroxypropylcellulose) (HPC), higher = larger tumour
[10] = endpoint: median tumor weight (est.), dose: 50.0 mg/kg/injection, schedule: Q07DX002 (ip), vehicle: Klucel (hydroxypropylcellulose) (HPC), higher = larger tumour
[11] = endpoint: median tumor weight (est.), dose: 100.0 mg/kg/injection, schedule: Q07DX002 (ip), vehicle: Klucel (hydroxypropylcellulose) (HPC), higher = larger tumour
[12] = endpoint: median tumor weight (est.), dose: 50.0 mg/kg/injection, schedule: Q07DX002 (ip), vehicle: saline, higher = larger tumour

## O=C1c2ccccc2C(=O)c2c(NCCNCCO)ccc(NCCNCCO)c21
endpoint: median survival time, dose: 20.0 mg/kg/injection, schedule: Q04DX004 (ip), vehicle: saline, higher = longer survival
  T/C: 110 % of control
endpoint: median survival time, dose: 40.0 mg/kg/injection, schedule: Q04DX004 (ip), vehicle: saline, higher = longer survival
  T/C: 110 % of control
endpoint: median survival time, dose: 80.0 mg/kg/injection, schedule: Q04DX004 (ip), vehicle: saline, higher = longer survival
  T/C: 120 % of control
endpoint: median tumor weight (est.), dose: 1.0 mg/kg/injection, schedule: Q07DX002 (ip), vehicle: saline, higher = larger tumour
  T/C: 89 % of control
endpoint: median tumor weight (est.), dose: 1.5 mg/kg/injection, schedule: Q07DX003 (ip), vehicle: saline with Tween-80, higher = larger tumour
  T/C: 47 % of control and 64 % of control
endpoint: median tumor weight (est.), dose: 2.0 mg/kg/injection, schedule: Q07DX002 (ip), vehicle: saline, higher = larger tumour
  T/C: 77 % of control
endpoint: median tumor weight (est.), dose: 3.0 mg/kg/injection, schedule: Q07DX003 (ip), vehicle: saline with Tween-80, higher = larger tumour
  T/C: 81 % of control
endpoint: median tumor weight (est.), dose: 3.0 mg/kg/injection, schedule: Q07DX003 (ip), vehicle: saline, higher = larger tumour
  T/C: 59 % of control and 72 % of control
endpoint: median tumor weight (est.), dose: 4.0 mg/kg/injection, schedule: Q07DX002 (ip), vehicle: acid diluted with saline, higher = larger tumour
  T/C: 82 % of control
[1]
  T/C: 66 % of control
endpoint: median tumor weight (est.), dose: 6.0 mg/kg/injection, schedule: Q07DX003 (ip), vehicle: saline with Tween-80, higher = larger tumour
  T/C: 11 % of control
[2]
  T/C: 107 % of control
endpoint: median tumor weight (est.), dose: 8.0 mg/kg/injection, schedule: Q07DX002 (ip), vehicle: acid diluted with saline, higher = larger tumour
  T/C: 70 % of control
[3]
  T/C: 82 % of control
endpoint: median tumor weight (est.), dose: 8.0 mg/kg/injection, schedule: Q07DX003 (ip), vehicle: Klucel (hydroxypropylcellulose) (HPC), higher = larger tumour
  T/C: 65 % of control
endpoint: median tumor weight (est.), dose: 8.0 mg/kg/injection, schedule: Q07DX003 (ip), vehicle: water, higher = larger tumour
  T/C: 56 % of control
endpoint: median tumor weight (est.), dose: 16.0 mg/kg/injection, schedule: Q07DX002 (ip), vehicle: Klucel (hydroxypropylcellulose) (HPC), higher = larger tumour
  T/C: 120 % of control
endpoint: median tumor weight (est.), dose: 16.0 mg/kg/injection, schedule: Q07DX002 (ip), vehicle: acid diluted with saline, higher = larger tumour
  T/C: 39 % of control
[4]
  T/C: 48 % of control
endpoint: median tumor weight (est.), dose: 16.0 mg/kg/injection, schedule: Q07DX003 (ip), vehicle: Klucel (hydroxypropylcellulose) (HPC), higher = larger tumour
  T/C: 54 % of control
endpoint: median tumor weight (est.), dose: 16.0 mg/kg/injection, schedule: Q07DX003 (ip), vehicle: water, higher = larger tumour
  T/C: 47 % of control
endpoint: median tumor weight (est.), dose: 25.0 mg/kg/injection, schedule: Q07DX003 (ip), vehicle: Klucel (hydroxypropylcellulose) (HPC), higher = larger tumour
  T/C: 46 % of control
endpoint: median tumor weight (est.), dose: 25.0 mg/kg/injection, schedule: Q07DX003 (iv), vehicle: Klucel (hydroxypropylcellulose) (HPC), higher = larger tumour
  T/C: 4 % of control and 18 % of control and 25 % of control
endpoint: median tumor weight (est.), dose: 32.0 mg/kg/injection, schedule: Q07DX002 (ip), vehicle: Klucel (hydroxypropylcellulose) (HPC), higher = larger tumour
  T/C: 65 % of control
endpoint: median tumor weight (est.), dose: 32.0 mg/kg/injection, schedule: Q07DX002 (ip), vehicle: acid diluted with saline, higher = larger tumour
  T/C: 4 % of control
[5]
  T/C: 10 % of control
endpoint: median tumor weight (est.), dose: 32.0 mg/kg/injection, schedule: Q07DX003 (ip), vehicle: Klucel (hydroxypropylcellulose) (HPC), higher = larger tumour
  T/C: 52 % of control
endpoint: median tumor weight (est.), dose: 32.0 mg/kg/injection, schedule: Q07DX003 (ip), vehicle: water, higher = larger tumour
  T/C: 28 % of control
endpoint: median tumor weight (est.), dose: 50.0 mg/kg/injection, schedule: Q07DX003 (ip), vehicle: Klucel (hydroxypropylcellulose) (HPC), higher = larger tumour
  T/C: 45 % of control
endpoint: median tumor weight (est.), dose: 50.0 mg/kg/injection, schedule: Q07DX003 (iv), vehicle: Klucel (hydroxypropylcellulose) (HPC), higher = larger tumour
  T/C: 11 % of control and 17 % of control
endpoint: median tumor weight (est.), dose: 64.0 mg/kg/injection, schedule: Q07DX002 (ip), vehicle: Klucel (hydroxypropylcellulose) (HPC), higher = larger tumour
  T/C: 26 % of control

## CCC(C)C(=O)O[C@H]1C(=O)O[C@@H]2C[C@H]3C(C)=CC(=O)[C@@H](O)[C@]3(C)[C@H]3[C@@H](O)[C@H](O)[C@@]4(C)OC[C@]32[C@@H]14 (stereo partly specified)
endpoint: median tumor weight (est.), dose: 1.25 mg/kg/injection, schedule: Q07DX002 (ip), vehicle: saline + alcohol, higher = larger tumour
  T/C: 45 % of control
endpoint: median tumor weight (est.), dose: 5.0 mg/kg/injection, schedule: Q07DX002 (ip), vehicle: saline + alcohol, higher = larger tumour
  T/C: 27 % of control and 50 % of control

## NC(=S)Nc1cccc2ccccc12
[6]
  T/C: 164 % of control
[7]
  T/C: 151 % of control
[8]
  T/C: 162 % of control

## Cn1c(N)c(C(=O)/C=C/c2ccccc2)c(=O)n(C)c1=O
[9]
  T/C: 114 % of control
[10]
  T/C: 112 % of control
[11]
  T/C: 109 % of control
endpoint: median tumor weight (est.), dose: 400.0 mg/kg/injection, schedule: Q07DX002 (ip), vehicle: Klucel (hydroxypropylcellulose) (HPC), higher = larger tumour
  T/C: 123 % of control

## COc1ccc(C2Oc3cc(OC)ccc3C(=O)C2c2ccccc2)cc1 (stereo unspecified)
endpoint: median tumor weight (est.), dose: 43.0 mg/kg/injection, schedule: Q07DX002 (ip), vehicle: other, higher = larger tumour
  T/C: 35 % of control
endpoint: median tumor weight (est.), dose: 72.0 mg/kg/injection, schedule: Q07DX002 (ip), vehicle: other, higher = larger tumour
  T/C: 56 % of control
endpoint: median tumor weight (est.), dose: 120.0 mg/kg/injection, schedule: Q07DX002 (ip), vehicle: other, higher = larger tumour
  T/C: 41 % of control
endpoint: median tumor weight (est.), dose: 200.0 mg/kg/injection, schedule: Q07DX002 (ip), vehicle: other, higher = larger tumour
  T/C: 34 % of control
endpoint: median tumor weight (est.), dose: 333.33 mg/kg/injection, schedule: Q07DX002 (ip), vehicle: other, higher = larger tumour
  T/C: 82 % of control

## Nc1nnc[se]1
[6]
  T/C: 79 % of control and 100 % of control
[7]
  T/C: 66 % of control and 73 % of control
[8]
  T/C: 86 % of control and 89 % of control
endpoint: median tumor weight (est.), dose: 200.0 mg/kg/injection, schedule: Q07DX002 (ip), vehicle: saline with Tween-80, higher = larger tumour
  T/C: 50 % of control

## O=C[C@@H](CO)O[C@H](C=O)c1c[nH]c(=O)[nH]c1=O
endpoint: median tumor weight (est.), dose: 12.5 mg/kg/injection, schedule: Q07DX002 (ip), vehicle: saline, higher = larger tumour
  T/C: 121 % of control
[12]
  T/C: 83 % of control
endpoint: median tumor weight (est.), dose: 100.0 mg/kg/injection, schedule: Q07DX002 (ip), vehicle: saline, higher = larger tumour
  T/C: 121 % of control
endpoint: median tumor weight (est.), dose: 200.0 mg/kg/injection, schedule: Q07DX002 (ip), vehicle: saline, higher = larger tumour
  T/C: 57 % of control

## O=c1ssc(=Nc2ccccc2)n1-c1ccccc1
[11]
  T/C: 97 % of control and 102 % of control

## CCN(CC)CCOC(=O)Cc1cc(OC)cc2c(=O)cc(-c3ccccc3)oc12
endpoint: median tumor weight (est.), dose: 12.5 mg/kg/injection, schedule: Q07DX002 (ip), vehicle: Klucel (hydroxypropylcellulose) (HPC), higher = larger tumour
  T/C: 65 % of control
[9]
  T/C: 82 % of control
[10]
  T/C: 56 % of control
[11]
  T/C: 111 % of control
endpoint: median tumor weight (est.), dose: 200.0 mg/kg/injection, schedule: Q07DX002 (ip), vehicle: Klucel (hydroxypropylcellulose) (HPC), higher = larger tumour
  T/C: 104 % of control

## CC1CC(C)CC(C)C(O)/C(C#N)=C/C=C/CC(C2CCCC2C(=O)O)OC(=O)CC(O)C(C)C1 (stereo unspecified)
endpoint: median tumor weight (est.), dose: 0.13 mg/kg/injection, schedule: Q07DX003 (ip), vehicle: Klucel (hydroxypropylcellulose) (HPC), higher = larger tumour
  T/C: 84 % of control
endpoint: median tumor weight (est.), dose: 0.25 mg/kg/injection, schedule: Q07DX003 (ip), vehicle: Klucel (hydroxypropylcellulose) (HPC), higher = larger tumour
  T/C: 80 % of control
endpoint: median tumor weight (est.), dose: 0.5 mg/kg/injection, schedule: Q07DX003 (ip), vehicle: Klucel (hydroxypropylcellulose) (HPC), higher = larger tumour
  T/C: 113 % of control
endpoint: median tumor weight (est.), dose: 1.0 mg/kg/injection, schedule: Q07DX002 (ip), vehicle: Klucel (hydroxypropylcellulose) (HPC), higher = larger tumour
  T/C: 92 % of control
endpoint: median tumor weight (est.), dose: 1.0 mg/kg/injection, schedule: Q07DX003 (ip), vehicle: Klucel (hydroxypropylcellulose) (HPC), higher = larger tumour
  T/C: 93 % of control
endpoint: median tumor weight (est.), dose: 2.0 mg/kg/injection, schedule: Q07DX003 (ip), vehicle: Klucel (hydroxypropylcellulose) (HPC), higher = larger tumour
  T/C: 69 % of control
endpoint: median tumor weight (est.), dose: 4.0 mg/kg/injection, schedule: Q07DX002 (ip), vehicle: Klucel (hydroxypropylcellulose) (HPC), higher = larger tumour
  T/C: 106 % of control
endpoint: median tumor weight (est.), dose: 4.0 mg/kg/injection, schedule: Q07DX003 (ip), vehicle: Klucel (hydroxypropylcellulose) (HPC), higher = larger tumour
  T/C: 88 % of control
[2]
  T/C: 75 % of control

## C=C1C(=O)OCC1C(=O)O (stereo unspecified)
[1]
  T/C: 290 % of control
[3]
  T/C: 281 % of control
[4]
  T/C: 297 % of control
[5]
  T/C: 278 % of control
endpoint: median tumor weight (est.), dose: 64.0 mg/kg/injection, schedule: Q07DX002 (ip), vehicle: saline, higher = larger tumour
  T/C: 344 % of control

## CCN(CC)CC[n+]1ccc2c(C)c3[nH]c4ccc(O)cc4c3c(C)c2c1
endpoint: median tumor weight (est.), dose: 3.12 mg/kg/injection, schedule: Q07DX002 (ip), vehicle: saline, higher = larger tumour
  T/C: 38 % of control
endpoint: median tumor weight (est.), dose: 3.12 mg/kg/injection, schedule: Q07DX002 (ip), vehicle: suspension in saline, higher = larger tumour
  T/C: 82 % of control
endpoint: median tumor weight (est.), dose: 6.25 mg/kg/injection, schedule: Q07DX002 (ip), vehicle: suspension in saline, higher = larger tumour
  T/C: 103 % of control
endpoint: median tumor weight (est.), dose: 12.5 mg/kg/injection, schedule: Q07DX002 (ip), vehicle: suspension in saline, higher = larger tumour
  T/C: 98 % of control
endpoint: median tumor weight (est.), dose: 25.0 mg/kg/injection, schedule: Q07DX002 (ip), vehicle: saline, higher = larger tumour
  T/C: 15 % of control and 29 % of control
endpoint: median tumor weight (est.), dose: 25.0 mg/kg/injection, schedule: Q07DX002 (ip), vehicle: suspension in saline, higher = larger tumour
  T/C: 57 % of control
[12]
  T/C: 5 % of control
endpoint: median tumor weight (est.), dose: 50.0 mg/kg/injection, schedule: Q07DX002 (ip), vehicle: suspension in saline, higher = larger tumour
  T/C: 22 % of control
